Experiments:
[1] = test system: human gingival fibroblasts; assay: Determination of cell growth curve (cell counting); type: cell-based; details: 5 days
Protocol: The effect of TB on the growth of various human cancer cells wasexamined. In FIG. 1, (A) COLO205, (B) HT29, (C) HepG2, (D) Hep3B, (E) HL60, and (F) normal human fibroblast cells were treated with various concentrations of TB (30 to 120 μM). Media with or without TB were renewed daily until cell counting. Three samples were analyzed in each group. Values represent mean±S.E. The cells were cultured for 5 days with or without TB (30-120 μM), and then the cells were harvested and counted. […] However, when TB concentration was increased to 120 μM, a 50% growth inhibition was observed.
Human colon cancer, hepatoma, leukemia, and human normal fibroblast cells at a density of 1×10^4 were plated in 35-mm Petri dishes. TB was added at the indicated doses in 0.05% dimethyl-sulfoxide (DMSO). For control specimens, the same volume of the 0.05% DMSO without TB was added. Media with and without TB were changed daily until cell counting

Hep 3B cells = assay: Flow cytometry (FACS) cell cycle analysis; type: cell-based, human; details: TB 10-150 μM, 15 h
human fibroblasts = assay: Flow cytometry (FACS) cell cycle analysis; type: cell-based
[2] = test system: cdk4 kinase activity in COLO 205 cells; assay: Immunoprecipitation and kinase activity assay; type: cell-based, human; details: 60 μM TB, 15 h after release from quiescence; p53 wild type
Protocol: (§1) (Ko U, and […]. Genes & Development 1996; 10(9): 1054-72; Levine AJ., Cell 1997;88(3):323-31.). […] To further test this hypothesis, we examined the TB effects on the levels of p21/Cip1, p27/Kip1 and p53 protein, and the cdk4 kinase activity in three human cancer cell lines (COLO 205, HT 29 and Hep 3B). […] Antisense or sense p53 was added to COLO 205 at a final concentration of 20 μM at 16 h before the cell was challenged with 10% FCS and 60 μM TB treatment for additional 15 h. […] As previously described (Wu X, et. al., Oncogene 1996;12(7):1397-403.), the TB-treated cells were lysed in Rb lysis buffer, and immunoprecipitated with anti-cdk4 antibody (2 μg). The protein complexes in beads were washed twice with Rb lysis buffer and then once with Rb kinase assay buffer. The level of phosphorylated of Rb (for pRb), histone Hi (for cdk2) and glutathione s-transferase-Rb fusion protein (for cdk4) were measured by incubating the beads with 40 μl of hot Rb kinase solution [0.25 μl (2 μg) of Rb-GST fusion protein, 0.5 μl of (γ-^32P) ATP, 0.5 μl of 0.1 mM ATP and 38.75 μl of Rb kinase buffer] at 37° C. for 30 min, and then stopped by boiling the samples in SDS sample buffer for 5 min. The samples were analyzed by 12% SDS-PAGE, and the gel was then dried and subjected to autoradiography.

[3] = test system: cdk4 kinase activity in HT 29 cells; assay: Immunoprecipitation and kinase activity assay; type: cell-based, human; details: 60 μM TB, 15 h; p53 His273 mutant
Protocol: as §1

[4] = test system: cdk4 kinase activity in Hep 3B cells; assay: Immunoprecipitation and kinase activity assay; type: cell-based, human; details: 60 μM TB, 15 h; p53 partial deletion
Protocol: as §1

[5] = test system: p53 binding to p21/Cip1 promoter DNA, nuclear extracts of COLO 205 cells; assay: Electrophoretic mobility shift assay (EMSA); type: cell-based, human; details: 60 μM TB
Protocol: Antisense or sense p53 was added to COLO 205 at a final concentration of 20 μM at 16 h before the cell was challenged with 10% FCS and 60 μM TB treatment for additional 15 h. […] The radio labeled DNA (4 ng, 100,000 cpm) was incubated with nuclear extract in 15 μl of binding buffer (10 mM Tris-HCl, pH 8.0, 1 mM EDTA, 10% glycerol, 200 mM NaCl, and 1 μg probe DNA) on ice for 5 min. The samples were electrophoresed in a 5% polyacrylamide gel, dried on Whatman 3M paper, and then exposed to Fuji x-ray films at -70° C.

COLO 205 cells = assay: DNA fragmentation (DNA ladder) by electrophoresis of genomic DNA; type: cell-based, human
Protocol: Genomic DNAs extracted from TB-treated COLO 205 were examined by gel electrophoresis. […] In FIG. 9, the part of (A) refers to potentiation of ND-induced apoptosis by TB. […] DNA fragmentation was examined at 24 h after drug treatment. In the lanes 2 and 8, cells received mock treatment as controls. The symbols of “M” (in lanes 1 and 7), refer to “DNA size marker.” (B) average tumor volume of DMSO-treated vs. drug-treated nude mice (n=5). (C) tumor weight, (D) animal body weight, and (E) tumor/body weight ratio were measured at the end of experiment. Five samples were analyzed in each group, and values represent the mean±S.E. Comparisons were subjected to ANOVA followed by Fisher's least significant difference test. Significance was accepted at p<0.05. *TB-, ND-, and TB+ND-treated group different from DMSO-treated group. TB+ND-treated group different from TB- or ND-treated group.

[6] = test system: COLO 205 tumor xenografts; assay: Treatment of COLO 205-derived xenografts in vivo; design: species or system nude mouse
Protocol: Genomic DNAs extracted from TB-treated COLO 205 were examined by gel electrophoresis. […] DNA fragmentation was examined at 24 h after drug treatment. In the lanes 2 and 8, cells received mock treatment as controls. […] Comparisons were subjected to ANOVA followed by Fisher's least significant difference test. […] Since, retardation of the cell cycle and/or activation of the cellular apoptotic response are two major mechanisms preventing tumor growth, we examined the TB effect on the cell cycle and apoptosis occurrence of the solid tumor derived from the implanted COLO 205. The COLO-205 cells (5×10^6) in 0.1 ml RPMI 1640 were injected subcutaneously between the scapulae of each nude mouse (purchased from National Science Council animal center, Taipei). […]

Structure (SMILES): CN(C/C=C/C#CC(C)(C)C)Cc1cccc2ccccc12 [TB, 1-Naphthalenemethanamine, N-(6,6-dimethyl-2-hepten-4-ynyl)-N-methyl-, (E)-]
- inhibition at 120 µM ([1]; Homo sapiens, Fibroblast, 120 h, TB 120 μM, medium changed daily, read-out: growth inhibition (reduction of cell count)): 50%
- growth rate ([1]; TB 30-60 μM): did not inhibit the growth rate
- apoptosis (presence of sub G1) (Hep 3B cells): dose-dependently caused the occurrence of apoptosis
- G0/G1 arrest (Hep 3B cells; p53 partial deleted cells): did not induce G0/G1 arrest
- cytotoxicity for untransformed human fibroblasts (human fibroblasts; TB 10-150 μM): not cytotoxic
- cell cycle arrest or cell death (human fibroblasts; TB treatment for 15 h): did not induce cell cycle arrest or cell death
- assayable cdk4 kinase activity [2]: strong decrease
- assayable cdk4 kinase activity [3]: slight decrease
- assayable cdk4 kinase activity [4]: slight decrease
- binding between p53 protein and p53 consensus binding site in p21/Cip1 promoter DNA probe [5]: increased the binding
- DNA ladder (COLO 205 cells; 10 μM TB alone, 24 h): does not induce DNA ladder
- effect of TB on ND-induced apoptosis (COLO 205 cells; co-treatment with TB 10 μM and ND): enhanced the ND-induced apoptosis
- cytotoxicity for the vital organs ([6]; 50 mg/Kg body weight): not cytotoxic for the vital organs
- tumor volume vs. vehicle (DMSO plus peanut oil) ([6]; TB 50 mg/kg, ND 5 mg/kg, intraperitoneal, 3 times per week for 6 weeks): reduction in tumor volume
- tumor size of the COLO 205 tumor mass ([6]; intraperitoneal TB 50 mg/kg): substantial decline in tumor size
